Legend:
[1] = target: full-length (wild-type) AtCRY1 (Arabidopsis thaliana, UniProt Q43125); conditions: FAD-bound full-length protein; details only in supplement
AtCRY1 PHR = AtCRY1 PHR (Arabidopsis thaliana, UniProt Q43125); assay: biochemical
Chain of AtCRY1 PHR (Q43125 1-509): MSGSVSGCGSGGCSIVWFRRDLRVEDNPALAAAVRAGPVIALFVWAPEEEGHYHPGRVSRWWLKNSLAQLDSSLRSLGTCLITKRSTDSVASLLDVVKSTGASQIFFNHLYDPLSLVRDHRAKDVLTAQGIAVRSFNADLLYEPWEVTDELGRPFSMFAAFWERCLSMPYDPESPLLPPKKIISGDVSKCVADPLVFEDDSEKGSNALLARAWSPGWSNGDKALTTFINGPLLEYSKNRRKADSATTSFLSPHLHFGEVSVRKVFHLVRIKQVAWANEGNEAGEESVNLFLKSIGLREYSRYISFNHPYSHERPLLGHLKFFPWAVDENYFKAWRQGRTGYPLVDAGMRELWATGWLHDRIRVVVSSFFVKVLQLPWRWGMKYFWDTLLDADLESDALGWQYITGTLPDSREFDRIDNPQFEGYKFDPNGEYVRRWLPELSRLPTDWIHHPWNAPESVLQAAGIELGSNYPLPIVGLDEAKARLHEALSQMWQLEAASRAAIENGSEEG

Chain of full-length (wild-type) AtCRY1 (Q43125 whole entry): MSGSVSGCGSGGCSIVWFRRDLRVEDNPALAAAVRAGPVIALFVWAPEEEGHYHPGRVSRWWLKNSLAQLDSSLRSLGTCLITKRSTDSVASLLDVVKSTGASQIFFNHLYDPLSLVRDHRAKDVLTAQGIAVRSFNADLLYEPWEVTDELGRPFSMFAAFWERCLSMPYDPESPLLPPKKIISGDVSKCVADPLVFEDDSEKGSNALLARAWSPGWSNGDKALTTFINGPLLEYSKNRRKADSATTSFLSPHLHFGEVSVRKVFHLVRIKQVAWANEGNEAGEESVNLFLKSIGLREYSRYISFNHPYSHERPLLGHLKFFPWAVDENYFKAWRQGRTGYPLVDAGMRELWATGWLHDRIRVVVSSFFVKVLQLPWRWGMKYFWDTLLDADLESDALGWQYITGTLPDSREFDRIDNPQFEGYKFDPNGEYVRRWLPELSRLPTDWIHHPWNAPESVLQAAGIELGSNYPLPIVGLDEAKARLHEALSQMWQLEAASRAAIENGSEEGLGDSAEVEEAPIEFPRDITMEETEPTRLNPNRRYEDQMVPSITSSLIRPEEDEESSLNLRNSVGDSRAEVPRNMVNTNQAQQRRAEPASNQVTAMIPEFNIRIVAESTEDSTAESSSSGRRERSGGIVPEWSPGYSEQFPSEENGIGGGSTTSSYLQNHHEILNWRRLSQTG

`Nc1ncnc2c1ncn2[C@@H]1O[C@H](COP(=O)(O)OP(=O)(O)OP(=O)(O)O)[C@@H](O)[C@H]1O` [ATP] was tested, and the “UV-Vis and transient absorption with ATP (control experiments)” value [1] was “we have not found any significant differences in their photoreactions” and the Kd (AtCRY1 PHR) was 1400 ± 600 nM.

From paper PMC4046262 (Scientific Reports, 2014)
